Results on eight molecules are retold here after patent US10118947B2, “Modulation of structured polypeptide specificity” (BICYCLE THERAPEUTICS LIMITED, priority 2013, dated 2018).

The nature of series [1]: Plasma stability profiling Method #1 (MALDI-TOF, 35% plasma), rat plasma. In kind it is in vitro ADME. Particulars: for Observable in rat plasma, for days: Table 15, comparative stabilities estimated according to method #1; for observability window / rat plasma stability profile: method #1. In a few lines:
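Qualitative test: 200 µM peptide incubated at 37 °C in 35% rat or human citrated plasma supplemented with PBS, sampled at 0, 3, 24 h then daily up to 10 days. Parent mass tracked by MALDI-TOF; value is time until parent peptide no longer detectable.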

The conditions of series [2]: Table 1; Method #1; cited from earlier work.
Series [3] has as its target T1, rat plasma Kallikrein (Rattus norvegicus, UniProt P14272).
T1 construct: polyhistidine tag (N, cleaved yes); proTEV cleavage site (pro-peptide linker) (N, cleaved yes); made in house; host or cells: HEK-293 (suspension-adapted)

For series [4] the following is noted: Table 1; Method #3; cited from earlier work.
A short description of series [5]: Quantitative plasma stability Method #3 (LC-MS, 95% plasma), rat plasma. It counts as in vitro ADME. The following applies: method #3; for half-life at 5 uM: rat, plasma. On the procedure: To obtain plasma stability quantitatively, peptide stock solutions (1 mM in DMSO) were shipped to Biofocus, UK, who performed the analysis. Peptides were diluted to 100 uM with water, and diluted 1:20 in plasma (5 uM final concentration, with the plasma at 95%), sampled as appropriate, precipitated as above, and quantified using a Waters Xevo TQ-MS.

In series [6] the target is T2, human plasma Kallikrein (Homo sapiens, UniProt P03952).
T2 construct: purchased Stratech, UK
The series is described as follows: Functional enzyme inhibition assay with fluorogenic substrate Z-PheArg-AMC, human plasma Kallikrein. In kind it is biochemical. The essentials:
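Human plasma kallikrein at 26.5 pM was preincubated 15 minutes with test peptide in Tris/NaCl/MgCl2/CaCl2/BSA buffer pH7.4 at 25° C, then Z-PheArg-AMC added to 100 μM final in 4% DMSO.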

The target of series [7] is T1, rat plasma Kallikrein. The series is described as follows: Functional enzyme inhibition assay with fluorogenic substrate Z-PheArg-AMC, rat plasma Kallikrein. Particulars: Table 26a, loop2 stability enhanced candidates. It counts as biochemical. On the procedure:
Functional enzyme assays were conducted in 10 mM Tris HCl, 150 mM NaCl, 10 mM MgCl2, 1 mM CaCl2) and 1 mg/mL BSA (all Sigma UK) pH7.4 at 25° C. in solid black 96 well plates. Briefly 26.5 pM human plasma Kallikrein (purchased from Stratech, UK) or 500 pM rat plasma Kallikrein (expressed and purified in house) were incubated in the absence or presence of increasing concentrations of test peptide for 15 minutes before addition of the fluorogenic substrate Z-PheArg-AMC (Enzo Lifesciences UK) to a final assay concentration of 100 μM in 4% DMSO. Release of AMC was measured using a Pherastar FS (BMG Labtech), excitation 360 nm, emission 460 nm. The rate of the linear phase of the reaction, typically 5 to 45 minutes, was calculated in MARS data analysis software (BMG labtech). The rate was then used to calculate the IC50 and Ki in Prism (GraphPad). A four parameter inhibition non-linear regression equation was used to calculate the IC50.
Peptides were dissolved as the TFA-salts in their powder form, and stock solutions were usually prepared in water. All solutions were centrifuged and filtered ([…] syringe filters) prior absorption measurement at 280 nm. Extinction coefficients were calculated based on the Trp/Tyr content of the peptide, and that of TMB (the TMB core, when contained in a peptide, has an ε of ˜300 M^−1cm^−1). For peptides containing non-natural amino acids with suspected chromophoric properties (i.e. NorHar, 4PhenylPro, 3Pal, 4Pal, Tic, 4GuanPhe, 4,4-BPAI, 3,3-DPA, 1NAI, 2NAI, 4BenzylPro, Ind) concentrations were determined by weighing the powder and dissolving the peptide in a defined quantity of water.

Series [8] can be described thus: Plasma stability / fragment profiling Method #2 (MALDI-TOF, 95% plasma), human plasma. It counts as in vitro ADME. The following applies: running text and figure legends. The essentials: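 Peptide at 50 uM final in 95% human plasma without PBS; timed samples frozen at −80 °C, then extracted with 1:1 acetonitrile:methanol. Supernatant mixed with 30 mM ammonium bicarbonate and analysed by MALDI-TOF; qualitative fragment profiling of relative stability over time.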

A short description of series [9]: Intravenous pharmacokinetics in Sprague Dawley rats. In kind it is in vivo. Particulars: rat. The procedure: Peptides were applied as intravenous boli in PBS-buffered solution at 1.02 mg/mL (containing 2.9% DMSO) at 5.2 mg/kg to Sprague Dawley rats, and serial blood samples were taken from each animal via temporary indwelling tall vein cannulae at 5, 10, 20, 30, 60, 120, and 240 minutes post dose, and transferred to EDTA tubes for plasma generation. Data was acquired for peptide “all D Ac-06-34-18” from 3 rats, for “Ac-(06-34-18) Phe2 Aze3 Tyr4 HArg5 Ala(ψCH2NH)6” from two rats, and for “Ac-(06-34-18) Phe2 Aze3 Tyr4 HArg5 D-Asp9” from two rats.
Plasma samples were then treated with 3 volumes of a 1:1 mixture of acetonitrile and methanol, precipitated proteins were removed by centrifugation, and the supernatant was analysed by UPLC-MS/MS.
Quantification for peptide content in the samples was by reference to a calibration line prepared in control rat plasma. Pharmacokinetic parameters were determined by non-compartmental analysis using the software package PK Solutions 2.0 from Summit Research Services.

Where [10] appears, read: Table 1; read-out: Ki (nM) (rat kallikrein); cited from earlier work.
Where [11] appears, read: read-out: half-life in rat plasma (t1/2) (converted).

Like-named read-outs stand apart in the source and are kept apart here. Numbered stars: 1 amine (or outer) side, 2 acyl side, 3 side chain; on linkers, the order of the positions; unused ones are H or OH. Bridge positions count the residues as written; N and C are the ends. Square brackets hold non-standard residues; d marks the D form. Peptide text beside a SMILES is read from it. Phe(4-guanidino) = N=C(N)Nc1ccc(C[C@H](N)C(=O)O)cc1; TBMB = c1c(C[*:1])cc(C[*:3])cc1C[*:2]; NMeR = CN[C@@H](CCCNC(=N)N)C(=O)O; hArg = N=C(N)NCCCC[C@H](N)C(=O)O; Tle = CC(C)(C)[C@H](N)C(=O)O; Aze = O=C(O)[C@@H]1CCN1

T2 sequence (P03952 20-638): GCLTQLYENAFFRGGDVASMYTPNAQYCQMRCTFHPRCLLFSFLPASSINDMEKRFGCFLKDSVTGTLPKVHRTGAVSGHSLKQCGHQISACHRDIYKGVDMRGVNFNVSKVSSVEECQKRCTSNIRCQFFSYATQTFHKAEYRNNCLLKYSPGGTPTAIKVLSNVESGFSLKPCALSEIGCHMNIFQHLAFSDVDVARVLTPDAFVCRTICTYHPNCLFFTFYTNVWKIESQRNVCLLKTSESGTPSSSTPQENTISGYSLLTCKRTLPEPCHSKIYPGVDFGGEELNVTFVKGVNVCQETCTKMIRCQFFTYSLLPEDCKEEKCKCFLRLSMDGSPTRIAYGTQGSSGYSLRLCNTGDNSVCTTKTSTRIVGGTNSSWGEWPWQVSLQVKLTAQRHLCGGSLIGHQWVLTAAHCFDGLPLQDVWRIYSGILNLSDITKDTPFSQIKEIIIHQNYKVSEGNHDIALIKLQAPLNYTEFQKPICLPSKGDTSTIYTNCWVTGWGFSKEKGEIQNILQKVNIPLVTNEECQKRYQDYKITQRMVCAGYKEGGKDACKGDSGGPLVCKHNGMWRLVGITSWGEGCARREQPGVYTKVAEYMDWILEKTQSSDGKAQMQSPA
T1 sequence (P14272 391-638 limits assumed): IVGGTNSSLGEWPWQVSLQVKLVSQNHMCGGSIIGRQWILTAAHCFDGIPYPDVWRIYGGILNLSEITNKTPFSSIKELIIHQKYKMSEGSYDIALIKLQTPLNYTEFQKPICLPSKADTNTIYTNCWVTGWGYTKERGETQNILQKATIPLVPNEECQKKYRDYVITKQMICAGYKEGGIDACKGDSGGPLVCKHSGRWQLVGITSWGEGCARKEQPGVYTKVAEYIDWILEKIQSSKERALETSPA

In the case of `CC(=O)N[C@H]1CSCc2cc3cc(c2)CSC[C@H](NC(=O)[C@H](Cc2ccc(NC(=N)N)cc2)NC(=O)[C@H](C)NC(=O)[C@@H]2CCN2C(=O)[C@H](Cc2c[nH]c4ccccc24)NC(=O)[C@H](CO)NC1=O)C(=O)N[C@@H](CC(C)C)C(=O)N[C@@H](Cc1c[nH]cn1)C(=O)N[C@@H](CCC(N)=O)C(=O)N[C@@H](CC(=O)O)C(=O)N[C@@H](CC(C)C)C(=O)N[C@H](C(N)=O)CSC3` [Ac-(06-34-18) Aze3 4GuanPhe5] (Ac-CSW[Aze]A[Phe(4-guanidino)]CLHQDLC-NH2; linker 1-7-13 via TBMB), the “Observable in rat plasma, for days” value in [1] and in series [2] was greater than 10 days throughout.

For the molecule `CC(=O)N[C@H]1CSCc2cc3cc(c2)CSC[C@H](NC(=O)[C@H](CCCCNC(=N)N)NC(=O)[C@H](C)NC(=O)[C@@H]2CCN2C(=O)[C@H](Cc2c[nH]c4ccccc24)NC(=O)[C@H](CO)NC1=O)C(=O)N[C@@H](CC(C)C)C(=O)N[C@@H](Cc1c[nH]cn1)C(=O)N[C@@H](CCC(N)=O)C(=O)N[C@@H](CC(=O)O)C(=O)N[C@@H](CC(C)C)C(=O)N[C@H](C(N)=O)CSC3` [Ac-(06-34-18) Aze3 HomoArg5] (Ac-CSW[Aze]A[hArg]CLHQDLC-NH2; linker 1-7-13 via TBMB), the “Observable in rat plasma, for days” value in series [1] and in [2] was greater than 10 days each time. For the same molecule, the Ki in series [3] (setting [10]) is 14.8 nM.

As to `CC(=O)N[C@H]1CSCc2cc3cc(c2)CSC[C@H](NC(=O)[C@H](CCCNC(=N)N)N(C)C(=O)[C@H](C)NC(=O)[C@@H]2CCN2C(=O)[C@H](Cc2c[nH]c4ccccc24)NC(=O)[C@H](CO)NC1=O)C(=O)N[C@@H](CC(C)C)C(=O)N[C@@H](Cc1c[nH]cn1)C(=O)N[C@@H](CCC(N)=O)C(=O)N[C@@H](CC(=O)O)C(=O)N[C@@H](CC(C)C)C(=O)N[C@H](C(N)=O)CSC3` [Ac-(06-34-18) Aze3 NMeArg5] (Ac-CSW[Aze]A[NMeR]CLHQDLC-NH2; linker 1-7-13 via TBMB), the “Observable in rat plasma, for days” value in series [1] and in series [2] was greater than 10 days throughout. For the same molecule, the Ki in series [3] (setting [10]) was 70.2 nM.

Turning to `CC(=O)N[C@H]1CSCc2cc3cc(c2)CSC[C@H](NC(=O)[C@H](CCCCNC(=N)N)NC(=O)[C@H](C)NC(=O)[C@@H]2CCCN2C(=O)[C@H](Cc2c[nH]c4ccccc24)NC(=O)[C@H](CO)NC1=O)C(=O)N[C@@H](CC(C)C)C(=O)N[C@@H](Cc1c[nH]cn1)C(=O)N[C@@H](CCC(N)=O)C(=O)N[C@@H](CC(=O)O)C(=O)N[C@@H](CC(C)C)C(=O)N[C@H](C(N)=O)CSC3` [Ac-(06-34-18) HomoArg5], the “t1/2 (hrs) in rat plasma” value in series [4] was 10.7 h. The Ki in [3] (setting [10]) is 101 nM. The half-life at 5 uM in [5] (Table 15, read-out: t1/2 (hrs) in rat plasma (converted)) is 10.7 h.

For `CC(=O)N[C@H]1CSCc2cc3cc(c2)CSC[C@H](NC(=O)[C@H](CCCNC(=N)N)N(C)C(=O)[C@H](C)NC(=O)[C@@H]2CCCN2C(=O)[C@H](Cc2c[nH]c4ccccc24)NC(=O)[C@H](CO)NC1=O)C(=O)N[C@@H](CC(C)C)C(=O)N[C@@H](Cc1c[nH]cn1)C(=O)N[C@@H](CCC(N)=O)C(=O)N[C@@H](CC(=O)O)C(=O)N[C@@H](CC(C)C)C(=O)N[C@H](C(N)=O)CSC3` [Ac-(06-34-18) NMeArg5], the “observability window / rat plasma stability profile” value in series [1] was “exceeds the assay time”. For the same molecule, the “t1/2 (hrs) in rat plasma” value in [4] and in series [5] (Table 15) was greater than 20 h throughout. Further, in series [6], the “reduction in potency/affinity compared to wildtype” value was determined as 20 fold. For the same molecule, in series [3] (setting [10]), the Ki was 120 nM. Also, the half-life at 5 uM in series [5] (setting [11]) is greater than 20 h.

Regarding `CC(=O)N[C@H]1CSCc2cc3cc(c2)CSC[C@H](NC(=O)[C@H](CCCNC(=N)N)NC(=O)[C@H](Cc2ccc(O)cc2)NC(=O)[C@@H]2CCCN2C(=O)[C@H](Cc2ccccc2)NC(=O)[C@H](CO)NC1=O)C(=O)N[C@@H](C(C)(C)C)C(=O)N[C@@H](Cc1c[nH]cn1)C(=O)N[C@@H](CCC(N)=O)C(=O)N[C@@H](CC(=O)O)C(=O)N[C@@H](CC(C)C)C(=O)N[C@H](C(N)=O)CSC3` [Ac-(06-34-18) Phe2 Tyr4 tBuGly6] (Ac-CSFPYRC[Tle]HQDLC-NH2; linker 1-7-13 via TBMB), the Ki was found to be 218 nM in series [7] and 3.76 nM in [6] (Table 24a, residue 6 modification in the context of Ac-(06-34-18) Phe2 Tyr4, read-out: Ki (nM) Ac-(06-34-18) Phe2 Tyr4). The “degradation / fragments in human plasma (in words)” value in series [8] is listed as “only removal of Arg5 in the first loop”.

Regarding `CC(=O)N[C@H]1CSCc2cc3cc(c2)CSC[C@H](NC(=O)[C@H](CCCNC(=N)N)NC(=O)[C@H](C)NC(=O)[C@@H]2CCCN2C(=O)[C@H](Cc2c[nH]c4ccccc24)NC(=O)[C@H](CO)NC1=O)C(=O)N[C@@H](CC(C)C)C(=O)N[C@@H](Cc1c[nH]cn1)C(=O)N[C@@H](CCC(N)=O)C(=O)N[C@@H](CC(=O)O)C(=O)N[C@@H](CC(C)C)C(=O)N[C@H](C(N)=O)CSC3` [Ac-(06-34-18) wildtype], in [1], the “observability window / rat plasma stability profile” value is recorded as “about 2 days”. Further, the “t1/2 (hrs) in rat plasma” value in series [4] and in series [5] (Table 15) was 2.3 h in each case. Also, in series [3] (read-out: Ki (nM) (rat kallikrein); Table 1; cited from earlier work), the Ki is 1.8 nM. The half-life at 5 uM in [5] (setting [11]) is 2.3 h.

As for `CC(=O)N[C@@H]1CSCc2cc3cc(c2)CSC[C@@H](NC(=O)[C@@H](CCCNC(=N)N)NC(=O)[C@@H](C)NC(=O)[C@H]2CCCN2C(=O)[C@@H](Cc2c[nH]c4ccccc24)NC(=O)[C@@H](CO)NC1=O)C(=O)N[C@H](CC(C)C)C(=O)N[C@H](Cc1c[nH]cn1)C(=O)N[C@H](CCC(N)=O)C(=O)N[C@H](CC(=O)O)C(=O)N[C@H](CC(C)C)C(=O)N[C@@H](C(N)=O)CSC3` [All D 06-34-18, Ac-cswparclhqdlc-NH2(TMB), reference compound], the half-life in series [9] (Sprague Dawley, in vivo, intravenous bolus 5.2 mg/kg, read-out: elimination half-life) was determined as 0.9 h. Also, in series [9] (intravenous), the “Clearance based on AUC0-∞” value was found to be 4.5 mL/min/kg and the “Volume of distribution based on AUC0-∞” value stood at 0.3 L/kg. Moreover, the “potency / binding to kallikrein (in words)” value in [6] is recorded as “lacks any potency”.

The Ki is the equilibrium dissociation constant of an inhibitor or competing ligand from its target.
